Test results published in patent publication US20120022054A1, “NOVEL SUBSTITUTED ARYL DERIVATIVES, THEIR PROCESS OF PREPARATION AND THEIR THERAPEUTICAL USES AS ANTI-HIV AGENTS” (priority 2008, published 2012).
Read-outs that look alike come from different tables or passages of the source.

What was measured:
[1] = system: Env-deleted NL4-3 vector virus pseudotyped with the VSV g envelope; experiment: microbe, parasite or virus in culture; format: cell-based, HIV-1; settings: Vesicular stomatitis virus, NL43, SUP-T1, 48 h, read-out: EC50 for antiviral activity (50% inhibition of luciferase activity)
NL4-3 strain of HIV-1 = experiment: Multiple cycle infection assay of CAp24 antigen production; format: cell-based; settings: Human immunodeficiency virus 1, NL43, SUP-T1, 96 h, multiple cycle infection with NL4-3 virus, SupT1, MT4 or PBMC, MOI 0.01, day 4 and day −6 post-infection, read-out: EC50 for antiviral activity (50% inhibition of CA p24 production)

Row | Structure (SMILES) | EC50 [1] [µM] | EC50 (NL4-3 strain of HIV-1; threshold below 5 μM) [µM] | EC50 (NL4-3 strain of HIV-1; threshold below 500 nM) [µM]
1 | COc1ccccc1CN(C)C(=O)CCCSc1ccc(O)cc1 [Example 35, 4-[(4-Hydroxyphenyl)thio]-N-(2-methoxybenzyl)-N-methylbutanamide] | < 5 | < 5 | 
2 | C=CCOc1ccc(Cl)cc1CN(C)C(=O)CCCSc1ccc(F)cc1 [Example 101, N-[2-(allyloxy)-5-chlorobenzyl]-4-[(4-fluorophenyl)thio]-N-methylbutanamide] | < 5 | < 5 | 
3 | COc1cccc(CN(C)C(=O)CCCSc2ccc(O)cc2)c1OC [Example 29, N-(2,3-dimethoxybenzyl)-4-[(4-hydroxyphenyl)thio]-N-methylbutanamide] | < 5 | < 5 | 
4 | CC(C)Oc1ccccc1CN(C)C(=O)CCCCc1ccc(O)cc1 [Example 59, 5-(4-Hydroxyphenyl)-N-(2-isopropoxybenzyl)-N-methylpentanamide] | < 5 | < 5 | 
5 | COc1c(Cl)cc(Cl)cc1CN(C)C(=O)CCCSc1ccc(O)cc1 [Example 74, N-(3,5-Dichloro-2-methoxybenzyl)-4-[(4-hydroxyphenyl)thio]-N-methylbutanamide] | < 5 | < 5 | 
6 | CC(C)Oc1ccccc1CN(C)C(=O)CCCSc1ccc(F)cc1 [Example 50, 4-[(4-Fluorophenyl)thio]-N-(2-isopropoxybenzyl)-N-methylbutanamide] | < 5 | < 5 | 
7 | COc1ccccc1N(C)C(=O)CCCSc1ccc(F)cc1 [Example 126, 4-[(4-Fluorophenyl)thio]-N-(2-methoxyphenyl)-N-methylbutanamide] | < 5 | < 5 | 
8 | COc1ccccc1CN(C)C(=O)CCCSc1ccc2ccccc2n1 [Example 39, N-(2-Methoxybenzyl)-N-methyl-4-(quinolin-2-ylthio)butanamide] | < 5 | < 5 | 
9 | CN(Cc1ccccc1N1CCN(c2ccc(C(F)(F)F)cn2)CC1)C(=O)CCCNCc1ccc(F)cc1 [Example 80, 4-[(4-Fluorophenyl)methylamino]-N-methyl-N-(2-{4-[5-(trifluoromethyl)pyridin-2-yl]piperazin-1-yl}benzyl)butanamide] | < 5 | < 5 | 
10 | CCOC(=O)c1cc(F)ccc1SCCCC(=O)N(C)c1cccc(F)c1 [Example 193, Ethyl 5-fluoro-2-({4-[(3-fluorophenyl)(methyl)amino]-4-oxobutyl}thio)benzoate] | < 5 | < 5 | 
11 | COc1ccc([S+]([O-])CCCC(=O)N(C)c2nccc3ccccc23)cc1 (stereo not shown) [Example 133, N-isoquinolin-1-yl-4-[(4-methoxyphenyl)sulfinyl]-N-methylbutanamide] | < 5 | < 5 | 
12 | CN(C(=O)CCCSc1ccc(F)cc1)c1cccc2cnccc12 [Example 131, 4-[(4-fluorophenyl)thio]-N-isoquinolin-5-yl-N-methylbutanamide] | < 5 | < 5 | 
13 | CN(Cc1cccc2c1OCC2)C(=O)CCCSc1ccc(O)cc1 [Example 22, N-(2,3-Dihydro-1-benzofuran-7-ylmethyl)-4-[(4-hydroxyphenyl)thio]-N-methylbutanamide] | < 5 | < 5 | 
14 | C=CCOc1ccccc1CN(C)C(=O)CCCSc1ccc(F)cc1 [Example 90, N-[2-(Allyloxy)benzyl]-4-[(4-fluorophenyl)thio]-N-methylbutanamide] | < 5 | < 5 | 
15 | COc1ccc(SCCCC(=O)N(C)Cc2cc(C)ccc2OC)cc1 [Example 119, 4-[(4-methoxyphenyl)thio]-N-[2-methoxy-5-methylbenzyl]-N-methylbutanamide] | < 5 | < 5 | 
16 | CN(Cc1ccccc1OC(F)(F)F)C(=O)CCCSc1ccc(O)cc1 [Example 27, 4-[(4-hydroxyphenyl)thio]-N-methyl-N-[2-(trifluoromethoxy)benzyl]butanamide] | < 5 | < 5 | 
17 | COc1ccccc1CN(C)C(=O)CCCCc1ccc(O)cc1 [Example 19, 5-(4-Hydroxyphenyl)-N-(2-methoxybenzyl)-N-methylpentanamide] | < 5 | < 5 | 
18 | COc1ccccc1CN(C)C(=O)CCCCSc1ccc(O)cc1 [Example 12, 5-[(4-Hydroxyphenyl)thio]-N-(2-methoxybenzyl)-N-methylpentanamide] | < 5 | < 5 | 
19 | CN(Cc1ccccc1Cl)C(=O)CCCSc1ccc(F)cc1 [Example 14, N-(2-Chlorobenzyl)-4-[(4-fluorophenyl)thio]-N-methylbutanamide] | < 5 | < 5 | 
20 | COc1ccc(SCCCC(=O)N(C)Cc2ccccc2OC)cc1 [Example 42, N-(2-Methoxybenzyl)-4-[(4-methoxyphenyl)thio]-N-methylbutanamide] | < 5 | < 5 | 

Row | Structure (SMILES) | EC50 [1] [µM] | EC50 (NL4-3 strain of HIV-1; threshold below 5 μM) [µM] | EC50 (NL4-3 strain of HIV-1; threshold below 500 nM) [µM]
21 | CN(Cc1ccccc1N1CCOCC1)C(=O)CCCSc1ccc(O)cc1 [Example 11, 4-[(4-Hydroxyphenyl)thio]-N-methyl-N-(2-morpholin-4-ylbenzyl)butanamide] | < 5 | < 5 | 
22 | COc1ccccc1CN(C)C(=O)CCCSc1cccc(O)c1 [Example 26, 4-[(3-hydroxyphenyl)thio]-N-(2-methoxybenzyl)-N-methylbutanamide] | < 5 | < 5 | 
23 | CCOC(=O)c1cc(F)ccc1SCCCC(=O)N(C)c1cccc(OC)c1 [Example 195, Ethyl 5-fluoro-2-({4-[(3-methoxyphenyl)(methyl)amino]-4-oxobutyl}thio)benzoate] | < 5 |  | 
24 | COc1ccc(F)cc1CN(C)C(=O)CCCn1cc(-c2ccc(F)cc2)cn1 [Example 170, N-(5-Fluoro-2-methoxybenzyl)-4-[4-(4-fluorophenyl)pyrazol-1-yl]-N-methylbutanamide] |  | < 5 | < 0.5
25 | COc1ccc(F)cc1CN(C)C(=O)CCCn1cc(-c2ccc(C#N)cc2)cn1 [Example 177, N-(5-Fluoro-2-methoxybenzyl)-4-[4-(4-cyanophenyl)pyrazol-1-yl]-N-methylbutanamide] |  | < 5 | < 0.5
26 | COc1ccc(F)cc1CN(C)C(=O)CCC[S+]([O-])c1ccc(O)cc1 (stereo not shown) [Example 103, N-(5-fluoro-2-methoxybenzyl)-4-[(4-hydroxyphenyl)sulfinyl]-N-methylbutanamide] |  | < 5 | < 0.5
27 | CCOC(=O)c1cc(F)ccc1[S+]([O-])CCCC(=O)N1CCc2ccc(OC)cc21 (stereo not shown) [Example 191, Ethyl 5-fluoro-2-((4-(6-methoxy-2,3-dihydro-1H-indol-1-yl)-4-oxobutyl)sulfinyl)benzoate] |  | < 5 | 
28 | COc1ccc(Cl)cc1CN(C)C(=O)CCCn1cc(-c2ccc(F)cc2)cn1 [Example 173, N-(5-Chloro-2-methoxybenzyl)-4-[4-(4-fluorophenyl)pyrazol-1-yl]-N-methylbutanamide] |  | < 5 | < 0.5
29 | COc1ccc(F)cc1CN(C)C(=O)CCCn1ccc2cc(Cl)ccc21 [Example 107, 4-(5-chloro-1H-indol-1-yl)-N-(5-fluoro-2-methoxybenzyl)-N-methylbutanamide] |  | < 5 | < 0.5
30 | CN(C(=O)CCC[S+]([O-])c1ccc(F)cc1)c1nccc2ccccc12 (stereo not shown) [Example 129, 4-[(4-fluorophenyl)sulfinyl]-N-isoquinolin-1-yl-N-methylbutanamide] |  | < 5 | < 0.5
31 | CN(C(=O)CCCn1ccc2cc(F)ccc21)c1cccc2ccccc12 [Example 123, 4-(5-fluoro-1H-indol-1-yl)-N-methyl-N-1-naphthylbutanamide] |  | < 5 | < 0.5
32 | COc1ccc(F)cc1CN(C)C(=O)CCCn1cc(-c2ccc(F)cc2)c(C)n1 [Example 171, N-(5-Fluoro-2-methoxybenzyl)-4-[4-(4-fluorophenyl)-3-methylpyrazol-1-yl]-N-methylbutanamide] |  | < 5 | < 0.5
33 | CN(Cc1ccccc1N1CCNCC1)C(=O)CCCSc1ccc(O)cc1 [Example 162, 4-[(4-Hydroxyphenyl)thio]-N-methyl-N-(2-piperazin-1-ylbenzyl)butanamide] |  | < 5 | < 0.5
34 | COc1ccc(C)cc1CN(C)C(=O)CCCn1ccc2cc(F)ccc21 [Example 120, 4-(5-fluoro-1H-indol-1-yl)-N-(2-methoxy-5-methylbenzyl)-N-methylbutanamide] |  | < 5 | < 0.5
35 | COc1ccc([S+]([O-])CCCC(=O)N(C)Cc2cc(F)ccc2OC(C)C)cc1 (stereo not shown) [Example 118, N-(5-fluoro-2-isopropoxybenzyl)-4-[(4-methoxyphenyl)sulfinyl]-N-methylbutanamide] |  | < 5 | < 0.5
36 | COc1ccc(Cl)cc1CN(C)C(=O)CCCSc1ccc(O)cc1 [Example 70, N-(5-Chloro-2-methoxybenzyl)-4-[(4-hydroxyphenyl)thio]-N-methylbutanamide] |  | < 5 | < 0.5
37 | COc1ccc(-c2cnc(CCCC(=O)N(C)Cc3cc(F)ccc3OC)o2)cc1 [Example 180, N-(5-Fluoro-2-methoxybenzyl)-4-[5-(4-methoxyphenyl)oxazol-2-yl]-N-methylbutanamide] |  | < 5 | < 0.5
38 | COc1ccc(SCCCC(=O)N(C)c2nccc3ccccc23)cc1 [Example 132, N-isoquinolin-1-yl-4-[(4-methoxyphenyl)thio]-N-methylbutanamide] |  | < 5 | < 0.5
39 | COc1ccc(F)cc1CN(C)C(=O)CCCn1ccc2cc(Br)ccc21 [Example 108, 4-(5-bromo-1H-indol-1-yl)-N-(5-fluoro-2-methoxybenzyl)-N-methylbutanamide] |  | < 5 | < 0.5
